Counter-ions that a name gives are not always drawn.
How the values were obtained:
[1] = molecular target: muscarinic cholinergic receptor; assay: [^3 H] Quinuclidinyl Benzilate (^3 H-QNB) Binding Assay; conditions: rat cerebral cortex, ^3 H-QNB 0.25 nM, 25° C., 120 minutes, pH 7.4
[2] = molecular target: muscarinic cholinergic receptor; assay: [^3 H]-Cis-methyldioxolane (^3 H-CD) Binding Assay (High Affinity); conditions: rat cerebral cortex, ^3 H-CD 1.0 nM, 25° C., 120 minutes, pH 7.4, high affinity agonist conformation
[3] = test system: muscarinic sites; conditions: cited from earlier work
[4] = test system: presynaptic cholinergic; conditions: should disinhibit the release of endogenous acetylcholine; cited from earlier work
[5] = test system: postsynaptic cholinergic; conditions: should mimic the effects of acetylcholine; cited from earlier work
[6] = test system: aged monkey; conditions: aged monkeys; cited from earlier work
[7] = test system: SDAT patients; conditions: compared to the anticholinesterase inhibitor physostigmine; cited from earlier work

SMILES	IC50 [1]	IC50 [2]	also measured
CS(=O)(=O)N1CCC[C@@H]1C#CCN1CCCC1 [(R)-1-(Methylsulfonyl)-2-[3-(1-pyrrolidinyl)-1-propynyl]pyrrolidine, hydrochloride]			IC50 ([1]; hydrochloride): 25 µM; IC50 ([2]; hydrochloride): 2.45 µM
CS(=O)(=O)N1CCC[C@@H]1C#CCN1CCCC1 [(R)-1-(Methylsulfonyl)-2-[3-(1-pyrrolidinyl)-1-propynyl]pyrrolidine]	23 µM	0.973 µM	
CC(=O)N1CCC[C@@H]1C#CCN1CCCC1 [(R)-1-Acetyl-2-[3-(1-pyrrolidinyl)-1-propynyl]pyrrolidine]	8.8 µM	0.78 µM	
C(#C[C@H]1CCCN1)CN1CCCC1 [(R)-1-[3-(2-Pyrrolidinyl)-2-propynyl] pyrrolidine, dihydrochloride]			IC50 ([1]; dihydrochloride): 2.7 µM; IC50 ([2]; dihydrochloride): 0.742 µM
C(#C[C@H]1CCCN1)CN1CCCC1 [(R)-1-[3-(2-Pyrrolidinyl)-2-propynyl]pyrrolidine]	3.1 µM	0.514 µM	
O=CN1CCC[C@@H]1C#CCN1CCCC1 [(R)-2-(3-(1-Pyrrolidinyl)-1-propynyl]-1-pyrrolidine-carboxaldehyde]	34 µM	3.58 µM	
O=C(N1CCC[C@@H]1C#CCN1CCCC1)C(F)(F)F [(R)-2-[3-(1-Pyrrolidinyl)-1-propynyl]-1-(trifluoroacetyl)pyrrolidine, dihydrochloride]			IC50 ([1]; dihydrochloride): 43 µM; IC50 ([2]; dihydrochloride): 8.57 µM
O=C(N1CCC[C@@H]1C#CCN1CCCC1)C(F)(F)F [(R)-2-[3-(1-Pyrrolidinyl)-1-propynyl]-1-(trifluoroacetyl)pyrrolidine]	40 µM	2.58 µM	
CC(C)(C)OC(=O)N1CCC[C@@H]1C#CCN1CCCC1 [(R)-2-[3-(1-Pyrrolidinyl)-1-propynyl]-1-pyrrolidine-carboxylic acid, 1,1-dimethylethyl ester]	6.5 µM	0.029 µM	
CS(=O)(=O)N1CCC[C@H]1C#CCN1CCCC1 [(S)-1-(Methylsulfonyl)-2-[3-(1-pyrrolidinyl)-1propynyl]pyrrolidine, hydrochloride]			IC50 ([1]; hydrochloride): 47 µM; IC50 ([2]; hydrochloride): 8.08 µM
CS(=O)(=O)N1CCC[C@H]1C#CCN1CCCC1 [(S)-1-(Methylsulfonyl)-2-[3-(1-pyrrolidinyl]-1-propynyl]pyrrolidine]	43 µM	6.78 µM	
CC(=O)N1CCC[C@H]1C#CCN1CCCC1 [(S)-1-Acetyl-2-[3-(1-pyrrolidinyl)-1-propynly]-pyrrolidine, hydrochloride]			IC50 ([1]; hydrochloride): 73 µM; IC50 ([2]; hydrochloride): 3.26 µM
CC(=O)N1CCC[C@H]1C#CCN1CCCC1 [(S)-1-Acetyl-2-[3-(1-pyrrolidinyl)-1-propynyl]pyrrolidine]	76 µM	2.71 µM	
O=CN1CCC[C@H]1C#CCN1CCCC1 [(S)-2-[3-(1-Pyrrolidinyl)-1-propynyl]1-pyrrolidine-carboxaldehyde, hydrochloride]			IC50 ([1]; hydrochloride): 88 µM; IC50 ([2]; hydrochloride): 11.1 µM
CC(C)(C)OC(=O)N1CCC[C@H]1C#CCN1CCCC1 [(S)-2-[3-(1-Pyrrolidinyl)-1-propynyl]1-pyrrolidine-carboxylic acid, 1,1-dimethylethyl ester]	4.2 µM	0.247 µM	
O=C(N1CCC[C@H]1C#CCN1CCCC1)C(F)(F)F [(S)-2-[3-(1-Pyrrolidinyl)-1-propynyl]1-trifluoroacetyl) pyrrolidine, hydrochloride]			IC50 ([1]; hydrochloride): 16 µM; IC50 ([2]; hydrochloride): 3.83 µM
O=C(N1CCC[C@H]1C#CCN1CCCC1)C(F)(F)F [(S)-2-[3-(1-Pyrrolidinyl)-1-propynyl]-1-(trifluoroacetyl)pyrrolidine]	18 µM	5.47 µM	
O=CN1CCC[C@H]1C#CCN1CCCC1 [(S)-2-[3-(1-Pyrrolidinyl)-1-propynyl]-1-pyrrolidinecarboxaldehyde]	65 µM	5.24 µM	
CC(=O)N(C)C(C)C#CCN1CCCC1 (stereo not drawn) [BM-5, N-methyl-N-(1-methyl-4-pyrrolidino-2-butynyl)acetamide]			antagonist/agonist action at muscarinic sites [3]: antagonist at some muscarinic sites while being an agonist at most others; presynaptic cholinergic action [4]: presynaptic cholinergic antagonist; postsynaptic cholinergic action [5]: postsynaptic partial cholinergic agonist
COC(=O)C1=CCCN(C)C1 [arecoline]			improvement in performance [6]: significant improvement in performance; improvement in SDAT patients compared to physostigmine [7]: more-consistent improvement
O=C1CCCN1CC#CCN1CCCC1 [oxotremorine]			improvement in performance [6]: significant improvement in performance
